Reference: US9474780B2, “GIP and GLP-1 co-agonist compounds” (Eli Lilly and Company, priority 2015, dated 2016)

How the values were obtained:
[1] = molecular target: T1, human GIP-R (Homo sapiens, UniProt P48546); assay: Functional hGIP-R cAMP assay in HEK-293 clonal cells; conditions: HEK293, read-out: Human GIP-R Emax
T1 sequence (P48546 22-466): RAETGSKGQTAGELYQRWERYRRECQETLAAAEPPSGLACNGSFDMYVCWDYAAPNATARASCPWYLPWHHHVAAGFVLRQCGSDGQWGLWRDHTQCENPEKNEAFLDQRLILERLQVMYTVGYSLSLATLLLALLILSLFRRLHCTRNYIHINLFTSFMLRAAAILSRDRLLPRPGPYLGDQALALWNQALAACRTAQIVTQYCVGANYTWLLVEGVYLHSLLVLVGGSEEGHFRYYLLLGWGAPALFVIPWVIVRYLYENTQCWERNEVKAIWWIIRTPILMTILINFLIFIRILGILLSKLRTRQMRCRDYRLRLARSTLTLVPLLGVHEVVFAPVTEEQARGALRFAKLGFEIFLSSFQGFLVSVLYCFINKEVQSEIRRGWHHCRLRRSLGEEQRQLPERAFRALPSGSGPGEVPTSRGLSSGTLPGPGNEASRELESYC
Method: After an incubation of 60 minutes at room temperature, the resulting increase in intracellular cAMP is quantitatively determined using the CisBio cAMP Dynamic 2 HTRF Assay Kit (Bedford, Mass.). Briefly, cAMP levels within the cell are detected by adding the cAMP-d2 conjugate in cell lysis buffer (20 μl) followed by the antibody anti-cAMP-Eu^3+-Cryptate, also in cell lysis buffer (20 μl). The resulting competitive assay is incubated for at least 60 minutes at room temperature, then detected using a PerkinElmer Envision® instrument with excitation at 320 nm and emission at 665 nm and 620 nm Envision units (emission at 665 nm/620 nm*10,000) are inversely proportional to the amount of cAMP present and are converted to nM cAMP per well using a cAMP standard curve. […] A relative EC50 value and percent top (Emax) is derived by non-linear regression analysis using the percent maximal response versus the concentration of the compound of the present invention, fitted to a four-parameter logistic equation.

[2] = Pharmacokinetics in cynomolgus monkeys; assay type: in vivo; conditions: cynomolgus monkey, plasma
Method: The compounds are administered by a single intravenous or subcutaneous dose (0.2 mg/kg) in 20 mM citrate buffer (pH 7.0) at a volume of 0.21 ml/kg. Blood is collected from each animal at 2, 4, 8, 12, 24, 48, 72, 96, 120, 144, 168, 204, 240, and 312 hours post-dosage. The plasma concentrations of compounds of the present invention are determined by a LC/MS method. Briefly, a compound of the present invention is extracted from 100% Monkey plasma sample (50 μl) diluted with 1×PBS (150 μl) and mixed with N-butanol (400 μl). Three distinct liquid layers are formed with the compound located in the top layer. A volume of 200 μl is transferred to a v-bottom 96-well plate, dried down using heated Nitrogen gas and reconstituted with 100 μl of 30% acetonitrile/0.1% formic acid. 20 μl of the reconstituted sample is injected onto a Supelco Analytical Discovery bio wide C5 3 μm column. The column effluent is directed into a Thermo Q-Exactive mass spectrometer for detection and quantitation.

[3] = molecular target: Human GCGR (Homo sapiens, UniProt P47871); assay: Functional hGCGR cAMP assay in HEK-293 clonal cells
[4] = Plasma corticosterone in Sprague Dawley rats; assay type: in vivo, rat; conditions: for Corticosterone, Mean: 16 hours
Method: Plasma corticosterone levels are evaluated using Sprague Dawley Rats (Harlan, Indianapolis), weighing approximately 220 g and acclimated for at least 72 hours before handling. The rats are then dosed with vehicle (20 mM citrate buffer, pH 7), semaglutide (10 nmol/kg), or compounds of the present invention at 3, 10 or 30 nmol/kg s.c. with 8 rats per dose group. The rats are decapitated 16 hours later. Blood is collected into EDTA tubes on ice, then centrifuged 5 minutes at 8000 RPM in a Eppendorf 5402 tabletop centrifuge. Plasma is stored at −80° C. until analysis.
For corticosterone analysis, corticosterone standards (Sigma, 27840) are prepared by serial dilutions in HPLC-grade methanol, H2O and the addition of 5% charcoal stripped rat serum (Bioreclamation, RATSRM-STRPD-HEV). Rat plasma samples are diluted with PBS, precipitated with cold methanol, incubated for 20 minutes at −20° C., and then centrifuged at 14,000 RPM with an Eppendorf 5417R at 4° C. Supernatants are extracted, evaporated under a stream of N2 gas, and reconstituted in MeOH/H2O (1:1) solution.

[5] = molecular target: T2, human GLP-1R (Homo sapiens, UniProt P43220); assay: Functional hGLP-1R cAMP assay in HEK-293 clonal cells; assay type: cell-based; conditions: HEK293; percent of maximal response of hGLP-1(7-36)NH2
T2 construct: expressed in transfected cells; host or cells: 293HEK, Hygromycin-selected; crude plasma membranes

[6] = system: mouse islets; assay: Mouse islet insulin secretion; assay type: cell-based; conditions: read-out: Mouse islet insulin secretion Mean ED50
Method: To assess action of compounds of the present invention in a system representing physiological GLP-1R and GIP-R expression levels insulin secretion, compounds are tested for effects on insulin secretion from wild-type rodent islets.
After common bile duct cannulation in male C57B1/6 mice (22-26 g) or male Sprague-Dawley rats (approx. 250 g), the pancreas is distended with Hank's buffer (3 ml for mice or 10 ml for rats, containing 2% BSA and 0.75 mg/ml Clzyme collagenase (VitaCyte). Subsequently, tissues are digested in Hank's buffer at 37° C. for 11-13 minutes (mice) or 14-16 minutes for rat pancreata. Purified islets (Histopaque-1100 gradient [Sigma-Aldrich], […] at 750× gravity) are cultured overnight in RPMI-1640 medium (Invitrogen) containing 10% FBS, 100 U/ml penicillin and 100 μg/ml streptomycin, and preconditioned by starvation in Earle's Balanced Salt Solution (EBSS) supplemented with 0.1% BSA and 2.8 mM glucose. Subsequently, islets are incubated in EBSS (Invitrogen) supplemented with 0.1% BSA, 2.8-11.2 mM glucose and increasing levels of compound (6 batches of 4 islets/condition). GLP-1(7-36)amide (30 nM) is used as a positive control. Insulin is measured over 90 minutes in supernatant using the MSD Insulin Assay (Meso Scale, Gaithersburg, Md.).

T2 sequence (P43220 24-463): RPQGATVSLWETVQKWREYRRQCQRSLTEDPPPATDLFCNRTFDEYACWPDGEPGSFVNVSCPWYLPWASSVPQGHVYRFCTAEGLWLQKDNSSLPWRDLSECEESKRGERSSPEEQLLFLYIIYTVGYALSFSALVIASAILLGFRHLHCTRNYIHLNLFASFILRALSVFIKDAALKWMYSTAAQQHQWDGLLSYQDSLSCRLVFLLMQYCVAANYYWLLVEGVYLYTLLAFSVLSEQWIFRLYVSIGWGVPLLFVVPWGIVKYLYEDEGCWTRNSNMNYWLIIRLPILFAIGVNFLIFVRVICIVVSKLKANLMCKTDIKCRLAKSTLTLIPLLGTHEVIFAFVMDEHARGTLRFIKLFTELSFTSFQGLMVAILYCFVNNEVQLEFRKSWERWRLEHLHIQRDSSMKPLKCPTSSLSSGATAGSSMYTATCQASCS
Sequence of Human GCGR (P47871 26-477): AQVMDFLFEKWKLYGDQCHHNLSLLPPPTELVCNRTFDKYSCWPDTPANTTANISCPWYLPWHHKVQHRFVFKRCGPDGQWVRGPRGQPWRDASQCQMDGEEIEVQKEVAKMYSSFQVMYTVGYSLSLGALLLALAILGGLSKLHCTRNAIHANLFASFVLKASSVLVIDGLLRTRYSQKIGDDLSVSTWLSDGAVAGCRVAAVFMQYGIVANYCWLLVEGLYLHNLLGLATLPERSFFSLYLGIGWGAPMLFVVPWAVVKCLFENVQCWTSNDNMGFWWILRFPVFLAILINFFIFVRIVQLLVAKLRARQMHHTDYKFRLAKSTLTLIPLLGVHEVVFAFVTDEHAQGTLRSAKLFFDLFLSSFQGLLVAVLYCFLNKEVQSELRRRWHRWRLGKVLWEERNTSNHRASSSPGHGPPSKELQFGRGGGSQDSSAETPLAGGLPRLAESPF

CC[C@H](C)[C@H](NC(=O)[C@H](CC(C)C)NC(=O)[C@H](Cc1c[nH]c2ccccc12)NC(=O)[C@H](CCC(N)=O)NC(=O)[C@@H](NC(=O)[C@H](Cc1ccccc1)NC(=O)[C@H](C)NC(=O)[C@H](CCCCNC(=O)COCCOCCNC(=O)COCCOCCNC(=O)CC[C@H](NC(=O)CCCCCCCCCCCCCCCCCCC(=O)O)C(=O)O)NC(=O)[C@H](CCC(N)=O)NC(=O)[C@H](C)NC(=O)[C@@H](NC(=O)[C@H](CCCCN)NC(=O)[C@H](CC(=O)O)NC(=O)[C@H](CC(C)C)NC(=O)C(C)(C)NC(=O)[C@@H](NC(=O)[C@H](CO)NC(=O)[C@H](Cc1ccc(O)cc1)NC(=O)[C@H](CC(=O)O)NC(=O)[C@H](CO)NC(=O)[C@@H](NC(=O)[C@H](Cc1ccccc1)NC(=O)[C@@H](NC(=O)CNC(=O)[C@H](CCC(=O)O)NC(=O)C(C)(C)NC(=O)[C@@H](N)Cc1ccc(O)cc1)[C@@H](C)O)[C@@H](C)O)[C@@H](C)CC)[C@@H](C)CC)C(C)C)C(=O)N[C@@H](C)C(=O)NCC(=O)NCC(=O)N1CCC[C@H]1C(=O)N[C@@H](CO)C(=O)N[C@@H](CO)C(=O)NCC(=O)N[C@@H](C)C(=O)N1CCC[C@H]1C(=O)N1CCC[C@H]1C(=O)N1CCC[C@H]1C(=O)N[C@@H](CO)C(N)=O [Example 1]
Emax [1]: 97.9 ± 3% | Tmax ([2]; sc, single subcutaneous dose 0.2 mg/kg, read-out: time of mean maximum plasma concentration): ~8 h | clearance ([2]; 0.2 mg/kg single dose): 17.5 mL/day/kg | half-life ([2]; 0.2 mg/kg single dose, read-out: mean half-life (converted)): 55 h | bioavailability ([2]; subcutaneous vs intravenous, 0.2 mg/kg): ~83% | EC50 [3]: > 1000 nM | Corticosterone, Mean ([4]; 3 nmol/kg s.c.): 52.21 ng/mL | Corticosterone, Mean ([4]; 10 nmol/kg s.c.): 32.46 ng/mL | Corticosterone, Mean ([4]; 30 nmol/kg s.c.): 31.35 ng/mL | increase in plasma corticosterone levels over control ([4]; Example 1 at 3, 10, 30 nmol/kg, semaglutide 10 nmol/kg): no increase in plasma corticosterone levels | Emax [5]: 85.2 ± 4.4%

CC[C@H](C)[C@H](NC(=O)[C@H](CC(C)C)NC(=O)[C@H](Cc1c[nH]c2ccccc12)NC(=O)[C@H](CCC(N)=O)NC(=O)[C@@H](NC(=O)[C@H](Cc1ccccc1)NC(=O)[C@H](C)NC(=O)[C@H](CCCCNC(=O)COCCOCCNC(=O)COCCOCCNC(=O)CC[C@H](NC(=O)CC[C@H](NC(=O)CCCCCCCCCCCCCCCCC(=O)O)C(=O)O)C(=O)O)NC(=O)[C@H](CCC(N)=O)NC(=O)[C@H](C)NC(=O)[C@@H](NC(=O)[C@H](CCCCN)NC(=O)[C@H](CC(=O)O)NC(=O)[C@H](CC(C)C)NC(=O)C(C)(C)NC(=O)[C@@H](NC(=O)[C@H](CO)NC(=O)[C@H](Cc1ccc(O)cc1)NC(=O)[C@H](CC(=O)O)NC(=O)[C@H](CO)NC(=O)[C@@H](NC(=O)[C@H](Cc1ccccc1)NC(=O)[C@@H](NC(=O)CNC(=O)[C@H](CCC(=O)O)NC(=O)C(C)(C)NC(=O)[C@@H](N)Cc1ccc(O)cc1)[C@@H](C)O)[C@@H](C)O)[C@@H](C)CC)[C@@H](C)CC)C(C)C)C(=O)N[C@@H](C)C(=O)NCC(=O)NCC(=O)N1CCC[C@H]1C(=O)N[C@@H](CO)C(=O)N[C@@H](CO)C(=O)NCC(=O)N[C@@H](C)C(=O)N1CCC[C@H]1C(=O)N1CCC[C@H]1C(=O)N1CCC[C@H]1C(=O)N[C@@H](CO)C(N)=O [Example 4]
EC50 [6]: 3.5 nM | EC50 [3]: > 1000 nM | Emax [5]: 100 ± 5%
